Assay results reported in ChEMBL document CHEMBL5523733, “Small Molecule Targeting PPM1A Activates Autophagy for Mycobacterium tuberculosis Host-Directed Therapy” (J Med Chem, 2024).
Activity calls are given as the source filed them. The calls are words filed in the database; no cut-off is given here.

How the values were obtained:
Protein phosphatase 1A = molecular target: T1, Protein phosphatase 1A (Homo sapiens, UniProt P35813); assay: Inhibition of recombinant human PPM1A using pNPP as substrate preincubated for 15 mins followed by substrate addition measured after 20 mins by absorbance based assay
T1 sequence (P35813 whole entry): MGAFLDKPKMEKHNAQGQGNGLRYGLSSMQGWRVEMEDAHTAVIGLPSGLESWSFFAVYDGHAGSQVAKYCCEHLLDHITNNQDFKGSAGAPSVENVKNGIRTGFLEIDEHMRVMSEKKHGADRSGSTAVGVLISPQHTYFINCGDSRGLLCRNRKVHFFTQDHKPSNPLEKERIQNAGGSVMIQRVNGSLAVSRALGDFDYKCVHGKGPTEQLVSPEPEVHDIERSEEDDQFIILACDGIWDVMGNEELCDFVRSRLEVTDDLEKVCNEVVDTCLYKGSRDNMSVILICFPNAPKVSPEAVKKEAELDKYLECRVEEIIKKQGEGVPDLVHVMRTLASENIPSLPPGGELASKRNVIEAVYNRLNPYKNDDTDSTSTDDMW

[1] = Cytotoxicity against human THP-1 cells by resazurin dye based assay; format: toxicity, cell-based
[2] = Cytotoxicity against human Caco-2 cells by resazurin dye based assay; format: toxicity, cell-based
[3] = test system: Mycobacterium tuberculosis; assay: Anti-mycobacterial activity against Mycobacterium tuberculosis mc2 6206 assessed as bacterial growth inhibition at 20 uM incubated for 5 days by resazurin dye based assay; format: functional, organism-based; conditions: time 5.0 day
dsDNA = assay: Binding affinity to dsDNA (unknown origin) assessed as reduction in fluorescence intensity at 5 uM relative to control; format: nucleic-acid assay; set-up: scale not given: the % may be the effect or the level left
THP-1 [4] = assay: Induction of DNA damage in human THP-1 monocytes assessed as increase in gamma-H2AX at 0.1 to 10 uM incubated for 24 hrs by Western blot analysis; format: toxicity, cell-based; conditions: thp-1, 24 h, dose 0.1-10 µM
THP-1 [5] = assay: Induction of DNA damage in human THP-1 macrophages assessed as increase in gamma-H2AX at 0.1 to 10 uM incubated for 24 hrs by Western blot analysis; format: toxicity, cell-based; conditions: thp-1, 24 h, dose 0.1-10 µM
THP-1 [6] = assay: Cytotoxicity against human THP-1 monocytes assessed as cell viability at 0.1 to 10 uM incubated for 24 hrs by flow cytometry; format: toxicity, cell-based; conditions: thp-1, 24 h, dose 0.1-10 µM
THP-1 [7] = assay: Cytotoxicity against human THP-1 macrophages assessed as cell viability at 0.1 to 10 uM incubated for 24 hrs by flow cytometry; format: toxicity, cell-based; conditions: thp-1, 24 h, dose 0.1-10 µM
[8] = Toxicity in BALB/c mouse assessed as body weight change at 12.5 to 100 mg/kg, ip administered daily for 14 days; format: organism-based; conditions: in vivo, 336 h, dose 12.5-100 mg/kg, time 14 day
[9] = Toxicity in BALB/c mouse assessed as increase in stress level at 100 mg/kg, ip administered daily for 14 days; format: organism-based; conditions: in vivo, 336 h, time 14 day
[10] = Toxicity in BALB/c mouse assessed as increase in irritability at 100 mg/kg, ip administered daily for 14 days; format: organism-based; conditions: in vivo, 336 h, time 14 day
[11] = Toxicity in BALB/c mouse assessed as visible abnormality at 12.5 to 50 mg/kg, ip administered daily for 14 days; format: organism-based; conditions: in vivo, 336 h, dose 12.5-50 mg/kg, time 14 day
[12] = Toxicity in BALB/c mouse assessed as increase in brain weight at higher concentration administered intraperitoneally daily for 14 days; format: tissue-based; conditions: in vivo, ip, 336 h, time 14 day
[13] = Toxicity in BALB/c mouse assessed as change in spleen weight at 12.5 to 100 mg/kg, ip administered daily for 14 days; format: organism-based; conditions: in vivo, 336 h, dose 12.5-100 mg/kg, time 14 day
[14] = Toxicity in BALB/c mouse assessed as change in kidney weight at 12.5 to 100 mg/kg, ip administered daily for 14 days; format: organism-based; conditions: in vivo, 336 h, dose 12.5-100 mg/kg, time 14 day
[15] = Toxicity in BALB/c mouse assessed as change in liver weight at 12.5 to 100 mg/kg, ip administered daily for 14 days; format: organism-based; conditions: in vivo, 336 h, dose 12.5-100 mg/kg, time 14 day
[16] = Toxicity in BALB/c mouse assessed as change in lung weight at 12.5 to 100 mg/kg, ip administered daily for 14 days; format: organism-based; conditions: in vivo, 336 h, dose 12.5-100 mg/kg, time 14 day
[17] = Half life in ICR mouse at 10 mg/kg, po measured for 24 hrs; format: ADME, organism-based; conditions: in vivo
[18] = Tmax in ICR mouse at 10 mg/kg, po measured for 24 hrs; format: ADME, organism-based; conditions: in vivo
[19] = Cmax in ICR mouse at 10 mg/kg, po measured for 24 hrs; format: ADME, organism-based; conditions: in vivo
[20] = AUClast in ICR mouse at 10 mg/kg, po measured for 24 hrs; format: ADME, organism-based; conditions: in vivo
[21] = AUC (infinity) in ICR mouse at 10 mg/kg, po measured for 24 hrs; format: ADME, organism-based; conditions: in vivo
[22] = Oral bioavailability in ICR mouse at 10 mg/kg measured for 24 hrs; format: ADME, organism-based; conditions: in vivo
[23] = Half life in ICR mouse at 2 mg/kg, iv measured for 24 hrs; format: ADME, organism-based; conditions: in vivo
[24] = AUClast in ICR mouse at 2 mg/kg, iv measured for 24 hrs; format: ADME, organism-based; conditions: in vivo
[25] = AUC (infinity) in ICR mouse at 2 mg/kg, iv measured for 24 hrs; format: ADME, organism-based; conditions: in vivo
[26] = Clearance in ICR mouse at 2 mg/kg, iv measured for 24 hrs; format: ADME, organism-based; conditions: in vivo
THP-1 [27] = assay: Induction of autophagy in human THP-1 macrophages assessed as increase in p62 phosphorylation at S403 incubated for 24 hrs in presence of bafilomycin by Western blot analysis; format: functional, cell-based; conditions: dose 0.25-8 µM
THP-1 [28] = assay: Induction of autophagy in human THP-1 macrophages assessed as increase in lipidated LC3-II level at 0.25 to 8 uM incubated for 24 hrs in presence of bafilomycin by Western blot analysis; format: functional, cell-based; conditions: dose 0.25-8 µM
[29] = Toxicity in BALB/c mouse infected with Mycobacterium tuberculosis mc2 6206 assessed as body weight loss at 12.5 to 50 mg/kg, ip administered daily for 8 days; format: organism-based; conditions: in vivo, 192 h, dose 12.5-50 mg/kg, time 8 day
[30] = Toxicity in BALB/c mouse infected with Mycobacterium tuberculosis mc2 6206 assessed as visible toxic signs at 12.5 to 50 mg/kg, ip administered daily for 8 days; format: organism-based; conditions: in vivo, 192 h, dose 12.5-50 mg/kg, time 8 day
[31] = test system: Mycobacterium tuberculosis; assay: Anti-mycobacterial activity against Mycobacterium tuberculosis mc2 6206 infected in BALB/c mouse assessed as reduction in bacterial burden in spleen administered intraperitoneally daily for 8 days; format: functional, organism-based; conditions: dose 12.5-50 mg/kg, route ip, time 8.0 day
[32] = test system: Mycobacterium tuberculosis; assay: Inhibition of Mycobacterium tuberculosis mc2 6206 burden in lung of BALB/c mouse infected with at 12.5 to 50 mg/kg, ip administered daily for 8 days; format: functional, organism-based; conditions: dose 12.5-50 mg/kg, time 8.0 day

Work on COc1ccc2c(c1)c1ccc(OC(F)(F)F)cc1c[n+]2CCO yielded an IC50 (Protein phosphatase 1A) of 3.06 µM.
Molecule OCC[n+]1cc2cc(OC(F)(F)F)ccc2c2cc(F)ccc21 has an IC50 (Protein phosphatase 1A) of 1.43 µM, a CC50 [1] of over 200 µM and a CC50 [2] of over 200 µM.
Work on COc1cc2c[n+](CCO)c3ccc(F)cc3c2cc1C1CC1 yielded an IC50 (Protein phosphatase 1A) of over 20 µM.
COc1ccc2c(c1)c[n+](C(CO)CO)c1ccc(F)cc21 showed an IC50 (Protein phosphatase 1A) of over 20 µM.
Molecule CCCCOc1ccc2c(c1)c[n+](CCO)c1ccc(F)cc21 has an IC50 (Protein phosphatase 1A) of 3.56 µM.
For OCC[n+]1cc2cc(F)ccc2c2cc(F)ccc21, the IC50 (Protein phosphatase 1A) was over 20 µM.
With CC(C)Oc1ccc2c(c1)c[n+](CCO)c1ccc(F)cc21 the IC50 (Protein phosphatase 1A) was 3.72 µM.
With COc1ccc(-c2cc3c(cc2OC)c[n+](CCO)c2ccc(F)cc32)cc1 the IC50 (Protein phosphatase 1A) was 0.29 µM, the CC50 [1] was 37.2 µM and the CC50 [2] was 74.6 µM.
With COc1cc2c[n+](CCO)c3ccc(F)cc3c2cc1-c1ccc(NC(=O)OC(C)(C)C)cc1 the IC50 (Protein phosphatase 1A) was over 20 µM.
Work on COc1cc2c[n+](CCO)c3ccc(F)cc3c2cc1-c1ccc2c(c1)OCO2 yielded an IC50 (Protein phosphatase 1A) of over 20 µM.
In the case of CC(C)COc1ccc2c(c1)c[n+](CCO)c1ccc(F)cc21, the IC50 (Protein phosphatase 1A) is reported as over 20 µM.
In the case of COc1ccc2c(c1)c[n+](C(C)CO)c1ccc(F)cc21 (configuration not stated), the IC50 (Protein phosphatase 1A) is reported as over 10 µM.
CCOc1ccc2c(c1)c[n+](CCO)c1ccc(F)cc21.[Br-] gave an IC50 (Protein phosphatase 1A) of 0.18 µM, a Ki (Protein phosphatase 1A) of 0.59 µM and a CC50 [1] of 138 µM. The CC50 [2] was over 200 µM, the inhibition [3] was “inactive” and the Activity (dsDNA) was 10%. For the same molecule, the Activity (THP-1 [4]) was “Non-Toxic”, the Activity (THP-1 [5]) was “Non-Toxic” and the Activity (THP-1 [6]) was “Non-Toxic”. For the same molecule, the Activity (THP-1 [7]) was “Non-Toxic”, the Activity [8] was “Non-Toxic” and the Activity [9] was “Toxic”. For the same molecule, the Activity [10] was “Toxic”, the Activity [11] was “Non-Toxic” and the Activity [12] was “Toxic”. The Activity [13] was “Non-Toxic”, the Activity [14] was “Non-Toxic” and the Activity [15] was “Non-Toxic”. The Activity [16] was “Non-Toxic”, the half-life [17] was 46.3 min and the Tmax [18] was 15 min. It also gave a Cmax [19] of 908 ng/mL, an AUC(0-t) at 24 h [20] of 759 ng·h/mL and an AUC(0-inf) [21] of 761 ng·h/mL. For the same molecule, the bioavailability [22] was 73.7%, the half-life [23] was 38 min and the AUC(0-t) at 24 h [24] was 206 ng·h/mL. The AUC(0-inf) [25] was 208 ng·h/mL, the clearance [26] was 170 mL/min/kg and the Activity (THP-1 [27]) was “Dose-Dependent Effect”. The Activity (THP-1 [28]) was “Active”, the Activity [29] was “Non-Toxic” and the Activity [30] was “Non-Toxic”. The Activity [31] was “Dose-Dependent Effect” and the inhibition [32] was “inactive”.
For COc1ccc2c(c1)c[n+](CCO)c1ccc(C)cc21, the IC50 (Protein phosphatase 1A) was over 20 µM.
COc1ccc2c(c1)c[n+](CCCO)c1ccc(F)cc21 gave an IC50 (Protein phosphatase 1A) of over 10 µM.
For COc1ccc2c(c1)c[n+](CCO)c1ccccc21, the IC50 (Protein phosphatase 1A) was over 20 µM.
For OCC[n+]1cc2ccccc2c2cc(F)ccc21, the IC50 (Protein phosphatase 1A) was over 20 µM.
In the case of COC(=O)c1cccc(-c2cc3c(cc2OC)c[n+](CCO)c2ccc(F)cc32)c1, the IC50 (Protein phosphatase 1A) is reported as over 20 µM.
In the case of COc1ccc2c(c1)c[n+](CCO)c1cc(F)ccc21, the IC50 (Protein phosphatase 1A) is reported as over 20 µM.
